A short description of data set [1]: Hepatocytes metabolic stability assay. The data set is classed as in vitro ADME. As to conditions: cryopreserved hepatocytes, human hepatocytes, 1.0×10^6 cells/mL; for CLint scaled at 1 μM: read-out: Human hepatocyte Clint(liver); for half-life at 1 μM: read-out: Human hepatocyte stability T1/2. In a few lines: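 Cryopreserved hepatocytes (1.0×10^6 cells/mL final) were incubated with test compound at 1 μM at 37 °C and sampled at 0, 15, 30, 60 and 120 min, with acetonitrile quench and LC-MS/MS. k came from log-linear % remaining versus time, giving T1/2 and CLint.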

The target in the next data set is T1, TYK2-JH2 domain (Homo sapiens, UniProt P29597).
T1 construct: IC50 on JH2 domain activity (nM)
Kind of data set: Binding activity test for JH2 domain of TYK2 (Tb-antibody/tracer FRET). As to conditions: for JAK1/TYK2 selectivity: ratio JAK1-JH2 IC50 / TYK2-JH2 IC50. In a few lines: (§1)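 Compounds tested as 11-point 3-fold serial dilutions against the JH2 domain in a Tb-antibody/tracer FRET binding format. Plates incubated 60 min at 25° C, then overnight at 4° C, before FRET reading.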

A short description of data set [2]: Microsomal metabolic stability assay. The data set is classed as in vitro ADME. The note with it: pH 7.4, 0.5 mg/mL protein, 1 μM compound. In short, it runs like this:
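Test article at 1 μM with 0.5 mg/mL microsomal protein and 2 mM NADPH, in 100 mM potassium phosphate pH 7.4 with 1.0 mM EDTA at 37 °C. Sampled at 0–45 min and quantified by LC/MS/MS. T1/2 from the slope of ln % remaining vs time.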

A further data set concerns the target T2, JAK1-JH2 domain (Homo sapiens, UniProt P23458).
T2 construct: IC50 on JH2 domain activity (nM)
Kind of data set: Binding activity test for JH2 domain of JAK1 (Tb-antibody/tracer FRET). In short, it runs like this: as §1

Another data set addresses T3, JAK1 (Homo sapiens, UniProt P23458).
T3 construct: purchased Carna Biosciences
In words: JAK1 kinase activity, microfluidic assay (Caliper EZ Reader II). The data set is classed as biochemical. As to conditions: JAK1 5 nM, 1 mM ATP. In a few lines: (§2)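 Human JAK1, JAK2 or TYK2 enzyme was used in 50 mM HEPES, 10 mM MgCl2, 2 mM DTT and 0.01% Brij35, tuned to 10% conversion of a FAM-labelled peptide. Threefold dilutions of compound (top 5 µM, 1% DMSO) were pre-incubated with enzyme for 10 min, and reactions were stopped with EDTA. Phosphorylation was read by microfluidic mobility shift, and IC50 came from percent-inhibition curves.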

The next data set deals with T4, TYK2 (Homo sapiens, UniProt P29597).
T4 construct: purchased Carna Biosciences
Kind of data set: TYK2 kinase activity, microfluidic assay (Caliper EZ Reader II). Format: biochemical. The note with it: TYK2 1 nM, 1 mM ATP. In a few lines: as §2

Setting [3] is: dog liver microsomes, read-out: Dog LM Clint.
Where [4] appears, read: dog liver microsomes, read-out: Dog LM T½.
[5] abbreviates: human liver microsomes, read-out: Human LM Clint.
Where [6] appears, read: human liver microsomes, read-out: Human LM T½.
[7] abbreviates: rat liver microsomes, read-out: Rat LM Clint.
The mark [8] stands for this setting: rat liver microsomes, read-out: Rat LM T½.

Like-named read-outs stand apart in the source and are kept apart here. Some results are limits rather than exact numbers.

T1 sequence (P29597 589-875 limits assumed): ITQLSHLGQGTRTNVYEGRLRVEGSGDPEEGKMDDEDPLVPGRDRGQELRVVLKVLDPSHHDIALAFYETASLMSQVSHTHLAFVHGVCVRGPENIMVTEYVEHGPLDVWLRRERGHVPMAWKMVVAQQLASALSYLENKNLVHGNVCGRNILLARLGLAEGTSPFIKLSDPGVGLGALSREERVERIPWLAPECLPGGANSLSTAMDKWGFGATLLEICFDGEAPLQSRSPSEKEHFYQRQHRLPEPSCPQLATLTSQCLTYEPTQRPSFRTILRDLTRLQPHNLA
T4 sequence (P29597 whole entry): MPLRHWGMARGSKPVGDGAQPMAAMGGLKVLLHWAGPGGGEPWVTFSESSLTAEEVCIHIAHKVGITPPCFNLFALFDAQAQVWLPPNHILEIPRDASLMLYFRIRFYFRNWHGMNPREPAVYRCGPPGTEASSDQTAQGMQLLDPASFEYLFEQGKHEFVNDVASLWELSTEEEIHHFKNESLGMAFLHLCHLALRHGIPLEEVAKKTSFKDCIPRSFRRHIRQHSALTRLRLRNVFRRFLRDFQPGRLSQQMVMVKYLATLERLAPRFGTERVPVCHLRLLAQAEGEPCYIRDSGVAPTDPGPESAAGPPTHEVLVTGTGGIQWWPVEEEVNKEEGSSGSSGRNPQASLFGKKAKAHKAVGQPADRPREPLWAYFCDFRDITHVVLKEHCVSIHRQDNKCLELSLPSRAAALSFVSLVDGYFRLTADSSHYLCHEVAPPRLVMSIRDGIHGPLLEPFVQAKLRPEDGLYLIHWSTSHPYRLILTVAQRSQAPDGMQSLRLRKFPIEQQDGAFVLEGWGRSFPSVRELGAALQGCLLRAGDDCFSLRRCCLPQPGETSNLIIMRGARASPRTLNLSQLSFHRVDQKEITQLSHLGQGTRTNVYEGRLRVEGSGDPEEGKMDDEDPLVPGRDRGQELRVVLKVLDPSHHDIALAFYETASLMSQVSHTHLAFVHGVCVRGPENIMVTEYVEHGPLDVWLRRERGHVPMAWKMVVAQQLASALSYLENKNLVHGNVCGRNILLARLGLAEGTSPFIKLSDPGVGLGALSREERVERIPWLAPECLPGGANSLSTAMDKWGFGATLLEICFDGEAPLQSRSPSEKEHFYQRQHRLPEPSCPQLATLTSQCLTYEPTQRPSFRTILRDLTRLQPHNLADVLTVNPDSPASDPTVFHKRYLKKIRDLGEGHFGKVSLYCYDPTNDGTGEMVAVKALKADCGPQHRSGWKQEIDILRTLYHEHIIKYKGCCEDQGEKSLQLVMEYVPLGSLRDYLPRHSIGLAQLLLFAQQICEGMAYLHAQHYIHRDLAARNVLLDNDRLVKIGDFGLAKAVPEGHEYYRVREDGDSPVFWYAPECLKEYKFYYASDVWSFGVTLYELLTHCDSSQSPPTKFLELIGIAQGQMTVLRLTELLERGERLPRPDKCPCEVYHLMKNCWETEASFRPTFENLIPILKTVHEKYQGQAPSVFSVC
T3 sequence (P23458 whole entry): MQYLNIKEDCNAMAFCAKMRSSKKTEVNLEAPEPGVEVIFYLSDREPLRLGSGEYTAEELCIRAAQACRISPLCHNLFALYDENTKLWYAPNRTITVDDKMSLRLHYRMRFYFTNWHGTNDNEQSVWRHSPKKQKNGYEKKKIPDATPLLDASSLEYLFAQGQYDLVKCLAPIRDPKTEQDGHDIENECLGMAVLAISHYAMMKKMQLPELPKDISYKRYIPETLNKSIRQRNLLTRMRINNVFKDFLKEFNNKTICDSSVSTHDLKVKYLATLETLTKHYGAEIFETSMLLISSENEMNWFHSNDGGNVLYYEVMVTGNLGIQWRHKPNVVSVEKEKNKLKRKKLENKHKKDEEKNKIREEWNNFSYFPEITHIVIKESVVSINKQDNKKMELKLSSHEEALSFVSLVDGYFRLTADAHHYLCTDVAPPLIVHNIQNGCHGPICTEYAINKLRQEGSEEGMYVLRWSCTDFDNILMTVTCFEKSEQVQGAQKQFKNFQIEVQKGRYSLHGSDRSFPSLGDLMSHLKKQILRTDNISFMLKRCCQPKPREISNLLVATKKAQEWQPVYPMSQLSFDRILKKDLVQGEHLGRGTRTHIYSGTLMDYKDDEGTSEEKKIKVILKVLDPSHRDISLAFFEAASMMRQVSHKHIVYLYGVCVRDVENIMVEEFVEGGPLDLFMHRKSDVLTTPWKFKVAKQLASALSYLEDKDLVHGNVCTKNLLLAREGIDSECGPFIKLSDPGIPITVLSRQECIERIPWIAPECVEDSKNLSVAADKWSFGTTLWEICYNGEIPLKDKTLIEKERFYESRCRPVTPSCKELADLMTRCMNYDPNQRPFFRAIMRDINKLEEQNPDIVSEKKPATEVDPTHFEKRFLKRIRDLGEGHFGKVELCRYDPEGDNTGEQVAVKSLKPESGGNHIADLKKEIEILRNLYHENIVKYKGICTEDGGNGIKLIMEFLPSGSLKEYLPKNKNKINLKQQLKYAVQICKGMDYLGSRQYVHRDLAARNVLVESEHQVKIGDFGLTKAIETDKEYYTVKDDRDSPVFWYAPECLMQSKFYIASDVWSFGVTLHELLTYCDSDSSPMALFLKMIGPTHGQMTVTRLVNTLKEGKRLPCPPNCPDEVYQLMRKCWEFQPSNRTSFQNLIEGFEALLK
T2 sequence (P23458 583-855 limits assumed): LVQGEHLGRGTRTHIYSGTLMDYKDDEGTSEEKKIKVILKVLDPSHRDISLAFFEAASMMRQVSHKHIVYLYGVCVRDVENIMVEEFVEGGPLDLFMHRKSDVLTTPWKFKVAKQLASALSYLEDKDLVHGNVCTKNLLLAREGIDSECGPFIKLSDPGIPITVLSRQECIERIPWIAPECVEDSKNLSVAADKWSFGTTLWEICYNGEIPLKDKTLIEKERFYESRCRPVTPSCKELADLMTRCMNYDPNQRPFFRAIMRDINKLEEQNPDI

Regarding `[2H]C([2H])([2H])NC(=O)c1cnc(NC(=O)C2CC2)cc1Nc1ccc2cnn(CC)c2c1OC` [Example 44, 6-(Cyclopropanecarboxamido)-4-((1-ethyl-7-methoxy-1H-indazol-6-yl)amino)-N-(methyl-d3)nicotinamide], the CLint scaled at 1 μM in data set [1] stood at 43.1 mL/min/kg. Further, the half-life at 1 μM in data set [1] stood at 89.4 min; in data set [2] (setting [4]), 20.7 min; in data set [2] (setting [6]) it was 71.5 min; in data set [2] (setting [8]) it was 12.5 min. The half-inhibitory concentration (IC50) (usually the concentration needed to halve the response being measured) at TYK2-JH2 domain was 0.286 nM; on JAK1-JH2 domain, 9.89 nM; on JAK1, above 5000 nM; against TYK2, above 5000 nM. In addition, the JAK1/TYK2 selectivity at TYK2-JH2 domain turned out to be 34.6. The microsomal CLint at 1 μM worked out at 66.8 µL/min/mg in data set [2] (setting [3]), 19.4 µL/min/mg in data set [2] (setting [5]) and 111 µL/min/mg in data set [2] (setting [7]).
On to `[2H]C([2H])([2H])NC(=O)c1cnc(NC(=O)C2CC2)cc1Nc1ccc2cnn(CC(F)(F)F)c2c1OC` [Example 129, 6-(Cyclopropanecarboxamido)-4-((7-methoxy-1-(2,2,2-trifluoroethyl)-1H-indazol-6-yl)amino)-N-(methyl-d3)nicotinamide], for which the figures for the IC50 on TYK2-JH2 domain and on JAK1-JH2 domain were 0.416 nM and 20.8 nM, respectively. The JAK1/TYK2 selectivity at TYK2-JH2 domain stood at 49.9. For the same compound, the results for the microsomal CLint at 1 μM in data set [2] (setting [3]), in data set [2] (setting [5]) and in data set [2] (setting [7]) were 48.6 µL/min/mg, 40 µL/min/mg and 87.4 µL/min/mg, respectively. The half-life at 1 μM in data set [2] (setting [4]) stood at 28.5 min; in data set [2] (setting [6]) it was 34.6 min; in data set [2] (setting [8]), 15.9 min.
`[2H]C([2H])([2H])NC(=O)c1cnc(Nc2ccc(F)cn2)cc1Nc1nn(C)c2ccn(CC)c(=O)c12` [Example 139, 4-((5-Ethyl-1-methyl-4-oxo-4,5-dihydro-1H-pyrazolo[4,3-c]pyridin-3-yl)amino)-6-((5-fluoropyridin-2-yl)amino)-N-(methyl-d3)nicotinamide]: the CLint scaled at 1 μM in data set [1] is below 7.35 mL/min/kg. The results for the half-life at 1 μM in data set [1] and in data set [2] (setting [6]) were above 240 min and 59.8 min, respectively. Further, the IC50 at TYK2-JH2 domain came out at 0.524 nM; at JAK1-JH2 domain, 12.4 nM. Further, the JAK1/TYK2 selectivity on TYK2-JH2 domain is recorded as 23.6. The microsomal CLint at 1 μM in data set [2] (setting [5]) is 23.3 µL/min/mg.
For `[2H]C([2H])([2H])NC(=O)c1cnc(NC(=O)C2CC2)cc1Nc1ccn2ncc(C#N)c2c1OC` [Example 165, 4-((3-Cyano-4-methoxypyrazolo[1,5-a]pyridin-5-yl)amino)-6-(cyclopropanecarboxamido)-N-(methyl-d3)nicotinamide], the CLint scaled at 1 μM in data set [1] was below 7.35 mL/min/kg. Also, the half-life at 1 μM is above 240 min in data set [1], 99.7 min in data set [2] (setting [4]), 38 min in data set [2] (setting [6]) and 32 min in data set [2] (setting [8]). Also, the 50% inhibitory concentration (IC50) at TYK2-JH2 domain is 0.278 nM; on JAK1-JH2 domain it was 18.6 nM; against JAK1, above 5000 nM; on TYK2, above 5000 nM. Further, the JAK1/TYK2 selectivity at TYK2-JH2 domain amounted to 67.0. The microsomal CLint at 1 μM in data set [2] (setting [3]) is 14.3 µL/min/mg; in data set [2] (setting [5]) it was 36.9 µL/min/mg; in data set [2] (setting [7]), 43.6 µL/min/mg.
Turning to `[2H]C([2H])([2H])NC(=O)c1cnc(NC(=O)C2CC2)cc1Nc1ncc2cnn(CC)c2c1OC` [Example 262, 6-(Cyclopropanecarboxamido)-4-((1-ethyl-7-methoxy-1H-pyrazolo[4,3-c]pyridin-6-yl)amino)-N-(methyl-d3)nicotinamide], the CLint scaled at 1 μM in data set [1] is 18.5 mL/min/kg. Besides, the half-life at 1 μM in data set [1] worked out at 95.2 min. Besides, the IC50 on TYK2-JH2 domain is 0.22 nM; at JAK1-JH2 domain, 14.8 nM; at JAK1, above 5000 nM; at TYK2, above 5000 nM. Further, at TYK2-JH2 domain, the JAK1/TYK2 selectivity is 67.1.

(Values after patent US20250115597A1, “TYK2 INHIBITORS AND COMPOSITIONS AND METHODS THEREOF” (LYNK PHARMACEUTICALS CO. LTD., priority 2021, published 2025).)
